Source: patent publication US8183271B2, “Tetrazole derivatives and their use for the treatment of cardiovascular diseases” (Bayer Intellectual Property GmbH, priority 2005, dated 2012)

Assays:
[1] = tested on: spontaneously hypertensive rats (SH rats); test: Radiotelemetric measurement of blood pressure and heart rate on conscious SH rats; type: in vivo; details: oral administration of 10 mg/kg
Method: A commercially available telemetry system from Data Sciences International DSI, USA, is employed for the measurements on conscious SH rats described below.
The system consists of 3 main components: (1) implantable transmitter, (2) receiver which is linked via a multiplexer to a (3) data acquisition computer. The telemetry system makes it possible to record continuously the blood pressure and heart rate on conscious animals in their usual habitat.
The investigations are carried out on adult female spontaneously hypertensive rats (SH rats) with a body weight of >200 g. After transmitter implantation, the experimental animals are housed singly in type 3 Makrolon cages. They have free access to standard feed and water. […]
In the standard procedure, the following are measured for 10-second periods in each case: (1) systolic blood pressure (SBP), (2) diastolic blood pressure (DBP), (3) mean arterial pressure (MAP) and (4) heart rate (HR).
Measurement acquisition is repeated under computer control at 5-minute intervals. The source data obtained as absolute value are corrected in the diagram with the currently measured barometric pressure and stored in individual data. […]
The test substances are administered at 9.00 h on the day of the experiment. Following the administration, the parameters described above are measured over 24 hours. […]

saphenous artery rings = test: Vasorelaxant effect in vitro (phenylephrine-contracted artery rings); type: cell-based, Rabbits; details: rabbit saphenous artery rings, contraction induced by phenylephrine
Method: Rabbits are anesthetized and sacrificed by intravenous injection of thiopental sodium (about 50 mg/kg) and exsanguinated. The saphenous artery is removed and divided into rings 3 mm wide. The rings are mounted singly on in each case a pair of triangular hooks open at the end and made of 0.3 mm-thick special wire (Remanium®). Each ring is placed under an initial tension in 5 ml organ baths with Krebs-Henseleit solution which is at 37° C., is gassed with 95% O2/5% CO2 and has the following composition: NaCl 119 mM; KCl 4.8 mM; CaCl2×2H2O 1 mM; MgSO4×7H2O 1.4 mM; KH2PO4 1.2 mM; NaHCO3 25 mM; glucose 10 mM; bovine serum albumin 0.001%. The force of contraction is detected with Statham UC2 cells, amplified and digitized via A/D converters (DAS-1802 HC, Keithley Instruments, Munich) and recorded in parallel on chart recorders. Contractions are induced by addition of phenylephrine.
After several (generally 4) control cycles, the substance to be investigated is added in each further run in increasing dosage, and the height of the contraction achieved under the influence of the test substance is compared with the height of the contraction reached in the last preceding run. The concentration necessary to reduce the contraction reached in the preceding control by 50% is calculated from this (IC50). The standard application volume is 5 μl. The proportion of DMSO in the bath solution corresponds to 0.1%.

- IC50 (saphenous artery rings): 119 nM
Compound: CC(C)(C)c1ccc(COc2ccccc2/C=C/C(CCc2ccc(-c3nnn[nH]3)cc2)Cc2ccc(C(=O)O)cc2)cc1 (single isomer, unassigned) [Example 6, 4-((3E)-4-{2-[(4-tert-Butylbenzyl)oxy]phenyl}-2-{2-[4-(1H-tetrazol-5-yl)phenyl]ethyl}but-3-en-1-yl)benzoic acid]
- Period of blood pressure reduction [1]: 11 h
- Reduction in blood pressure [1]: marked reduction in blood pressure
